From ChEMBL document CHEMBL1155476, “A vHTS approach for the identification of beta-adrenoceptor ligands” (Bioorg Med Chem Lett, 2010) come the findings set out here.

Data set [1] concerns the target T1, Beta-2 adrenergic receptor (Homo sapiens, UniProt P07550). The data set can be described thus: biochemical.
Description: Displacement of [125I]cyanopindolol from human adrenergic beta2 receptor expressed in CHOK1 cells
Data set [2] addresses T2, Beta-3 adrenergic receptor (Homo sapiens, UniProt P13945). The data set can be described thus: biochemical.
Description: Displacement of [125I]cyanopindolol from human adrenergic beta3 receptor expressed in CHOK1 cells
Data set [3] deals with T3, Beta-1 adrenergic receptor (Homo sapiens, UniProt P08588). Description: Displacement of [125I]cyanopindolol from human adrenergic beta-1 receptor expressed in CHOK1 cells. The class given is cell-based, CHO-K1. On the technique in general: In a radioligand displacement assay an active substance lowers the binding of a labelled ligand.
Target sequence in this assay (P08588 whole entry): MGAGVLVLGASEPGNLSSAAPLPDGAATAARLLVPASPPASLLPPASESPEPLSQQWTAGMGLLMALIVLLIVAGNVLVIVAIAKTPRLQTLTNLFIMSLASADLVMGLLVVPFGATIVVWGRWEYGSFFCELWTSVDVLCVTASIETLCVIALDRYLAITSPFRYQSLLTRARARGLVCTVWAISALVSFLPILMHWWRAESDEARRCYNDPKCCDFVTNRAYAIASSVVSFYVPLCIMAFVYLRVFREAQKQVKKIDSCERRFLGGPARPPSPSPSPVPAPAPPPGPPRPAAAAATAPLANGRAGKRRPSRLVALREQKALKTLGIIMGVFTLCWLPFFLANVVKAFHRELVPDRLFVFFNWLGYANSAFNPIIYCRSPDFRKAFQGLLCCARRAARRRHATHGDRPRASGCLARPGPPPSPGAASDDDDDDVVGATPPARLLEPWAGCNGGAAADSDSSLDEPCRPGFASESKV
Data set [4] deals with T2, Beta-3 adrenergic receptor.
Description: Agonist activity at human adrenergic beta3 receptor expressed in CHOK1 cells assessed as cAMP accumulation by HTRF assay
In data set [5] the target is T2, Beta-3 adrenergic receptor. Description: Antagonist activity at human adrenergic beta3 receptor expressed in CHOK1 cells assessed as inhibition of cAMP accumulation by HTRF assay. The data set is classed as functional, cell-based, CHO-K1.
In data set [6] the target is T3, Beta-1 adrenergic receptor. Description: Antagonist activity at human adrenergic beta-1 receptor expressed in CHOK1 cells assessed as inhibition of cAMP accumulation by HTRF assay. The class given is functional, cell-based, CHO-K1. In general terms: cAMP levels reflect the balance of adenylyl cyclase and phosphodiesterase activity.
Target sequence in this assay (P08588 whole entry): as above
The target of data set [7] is T1, Beta-2 adrenergic receptor. Description: Antagonist activity at human adrenergic beta2 receptor expressed in CHOK1 cells assessed as inhibition of cAMP accumulation by HTRF assay. The class given is functional, cell-based, CHO-K1.
The target in data set [8] is T3, Beta-1 adrenergic receptor. The data set can be described thus: Intrinsic activity at human adrenergic beta-1 receptor expressed in CHOK1 cells assessed as cAMP accumulation by HTRF assay relative to isoproterenol. The data set is classed as functional, cell-based. The settings on record: CHO-K1.
Target sequence in this assay (P08588 whole entry, looked up): as the sequence (P08588 whole entry) above
The target in data set [9] is T3, Beta-1 adrenergic receptor. The data set can be described thus: Agonist activity at human adrenergic beta-1 receptor expressed in CHOK1 cells assessed as cAMP accumulation by HTRF assay. The class given is functional, cell-based, CHO-K1.
Target sequence in this assay (P08588 whole entry): as above
The nature of data set [10]: Cytotoxicity against human HepG2 cells. The data set is classed as cell-based. The settings on record: read-out: ED50 (the source's name).
Data set [11] is described as follows: Solubility at pH 4. The class given is physicochemical. The settings on record: buffer.
The nature of data set [12]: Permeability by PAMPA method. The data set is classed as ADME.
The nature of data set [13]: Solubility at pH 6. The class given is physicochemical. The settings on record: buffer.
Data set [14] is described as follows: Cmax in Wistar rat at 10 mg/kg, po. The data set is classed as ADME, organism-based. More on the design: dose 10 mg/kg, route oral. The conditions noted are these: in vivo.
The nature of data set [15]: Cytotoxicity against human PBMC cells. The class given is cell-based. The conditions noted are these: read-out: ED50 (the source's name).
Data set [16] in a line: Half life in Wistar rat at 10 mg/kg, po. The settings on record: in vivo. The class given is ADME, organism-based. Also on record: dose 10 mg/kg, route oral.

Structures are written as SMILES. ≈ marks a conversion by molar mass, not a printed value.

T1 sequence (P07550 whole entry): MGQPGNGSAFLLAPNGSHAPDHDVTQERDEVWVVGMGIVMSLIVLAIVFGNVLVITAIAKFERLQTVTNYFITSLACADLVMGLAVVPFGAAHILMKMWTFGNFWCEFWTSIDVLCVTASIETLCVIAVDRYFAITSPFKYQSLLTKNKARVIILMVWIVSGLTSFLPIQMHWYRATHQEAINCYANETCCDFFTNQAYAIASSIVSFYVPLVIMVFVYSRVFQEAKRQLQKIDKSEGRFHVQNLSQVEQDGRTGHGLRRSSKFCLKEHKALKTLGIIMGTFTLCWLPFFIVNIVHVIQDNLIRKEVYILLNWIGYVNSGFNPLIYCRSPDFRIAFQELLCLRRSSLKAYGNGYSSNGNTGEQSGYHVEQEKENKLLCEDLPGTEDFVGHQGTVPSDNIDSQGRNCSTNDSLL
T2 sequence (P13945 whole entry): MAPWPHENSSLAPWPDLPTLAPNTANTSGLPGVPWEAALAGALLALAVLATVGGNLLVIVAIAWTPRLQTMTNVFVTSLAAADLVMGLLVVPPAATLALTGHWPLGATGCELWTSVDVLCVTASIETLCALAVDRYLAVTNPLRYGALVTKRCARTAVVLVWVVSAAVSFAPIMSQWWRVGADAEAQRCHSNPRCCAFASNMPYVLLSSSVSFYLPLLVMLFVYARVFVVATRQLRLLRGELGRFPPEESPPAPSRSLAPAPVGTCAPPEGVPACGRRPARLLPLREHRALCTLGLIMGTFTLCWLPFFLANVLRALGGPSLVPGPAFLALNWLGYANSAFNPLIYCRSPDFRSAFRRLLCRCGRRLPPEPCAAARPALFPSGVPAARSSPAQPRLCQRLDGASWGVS

As for `COc1ccc(C(=O)C2CCN(CC(O)COc3cccc4[nH]c5ccccc5c34)CC2)cc1` (configuration not stated), the Ki (in general, the equilibrium dissociation constant of an inhibitor or competing ligand from its target) in [1] is 0.2 nM; in data set [2], 9180 nM; in data set [3] (read-out: Ki), 13 nM.

On to `O=C1c2cccc3cccc(c23)C(=O)N1CC1CCN(CC(O)COc2cccc3[nH]c4ccccc4c23)CC1` (configuration not stated), for which the Ki in data set [1] turned out to be 3 nM; in data set [2], 225 nM; in [3] (read-out: Ki) it was 7 nM.

Consider `C=CCc1ccccc1OCC(O)CN1CCC(CN2C(=O)c3cccc4cc(OC)cc(c34)C2=O)CC1` (configuration not stated), for which the Ki was found to be 78 nM in data set [1], 1510 nM in data set [2] and 300 nM in [3] (read-out: Ki).

Take `C=CCc1ccc(OCC(O)CN2CCC(CN3C(=O)c4cccc5cccc(c45)C3=O)CC2)c(OC)c1` (configuration not stated): the Ki in data set [1] stood at 3290 nM; in data set [2], 3290 nM; in [3] (read-out: Ki), 1360 nM.

For `COc1ccc(OCC(O)CN2CCC(CN3C(=O)c4cccc5cccc(c45)C3=O)CC2)c(C(C)(C)C)c1` (configuration not stated), the Ki in data set [1] was 300 nM; in [2], 3380 nM; in data set [3] (read-out: Ki) it was 530 nM.

Regarding `C=CCc1ccccc1OCC(O)CN1CCC(CN2C(=O)c3cccc4cccc(c34)C2=O)CC1` (configuration not stated), the EC50 – broadly, the concentration giving half of the maximal effect – in [4] was 2400 nM. Also, the Ki in data set [2] was found to be 409 nM; in data set [3] (read-out: Ki), 80 nM.

As to `CC(C)c1ccccc1OCC(O)CN1CCC(CN2C(=O)c3ccccc3C2=O)CC1` (configuration not stated), the results for the Ki in data set [1], in data set [2] and in data set [3] (read-out: Ki) were 17 nM, 1480 nM and 720 nM, respectively.

`Cc1ccc(C(C)C)c(OCC(O)CN2CCN(CCN3C(=O)c4cccc5cccc(c45)C3=O)CC2)c1` (configuration not stated): the Ki was 110 nM in data set [1], > 10000 nM in [2] and “Not Active” in [3] (cho-k1).

Consider `COc1cc2c3c(cccc3c1)C(=O)N(CC1CCN(CC(O)COc3cccc4[nH]c5ccccc5c34)CC1)C2=O` (configuration not stated), for which the figures for the Ki in [1], in data set [2] and in data set [3] (read-out: Ki) were 8 nM, 410 nM and 0.1 nM, respectively.

For the compound `C=CCc1ccccc1OCC(O)CN1CCC(CN2C(=O)c3ccccc3C2=O)CC1` (configuration not stated), the Ki stood at 50 nM in data set [1], 3400 nM in data set [2] and 190 nM in [3] (read-out: Ki).

For the compound `CC(C)c1ccccc1OCC(O)CN1CCC(N2C(=O)c3cccc4cccc(c34)C2=O)CC1` (configuration not stated), the Ki was 13 nM in data set [1], 3820 nM in data set [2] and 240 nM in data set [3] (read-out: Ki).

Take `COc1ccc(OCC(O)CNC2CCN(c3ncnc4scc(-c5ccccc5)c34)CC2)cc1` (configuration not stated): the Ki in data set [3] (read-out: Ki) was > 10000 nM.

As for `C=CCc1ccccc1OCC(O)CN1CCOCC1` (configuration not stated), the Ki came out at 7 nM in data set [1], 4960 nM in [2] and 114 nM in data set [3] (read-out: Ki).

`Cc1ccc(C(C)C)c(OCC(O)CN2CCC(CN3C(=O)c4cccc5cccc(c45)C3=O)CC2)c1` (configuration not stated): the Ki in data set [1] came to 80 nM; in data set [2] it was 411 nM; in data set [3] (read-out: Ki) it was 1000 nM. The IC50 (in general, the concentration that inhibits the measured activity by half) stood at 1470 nM in [5] and 1380 nM in [6].

For the compound `C=CCc1ccccc1OCC(O)CN1CCC(CN2C(=O)c3cccc4cc(O)cc(c34)C2=O)CC1` (configuration not stated), the Ki stood at 135 nM in data set [1], 2200 nM in [2] and 170 nM in data set [3] (read-out: Ki).

For the compound `O=C1c2cccc3cccc(c23)C(=O)N1C1CCN(CC(O)COc2cccc3[nH]c4ccccc4c23)CC1` (configuration not stated), the figures for the Ki in [1], in data set [2] and in data set [3] (read-out: Ki) were 57 nM, 98 nM and 76 nM, respectively.

For `C=CCc1ccccc1OCC(O)CNC1CCN(C)CC1` (configuration not stated), the Ki in data set [1] amounted to 2.4 nM; in [2] it was 6220 nM; in data set [3] (read-out: Ki) it was 260 nM.

As to `C=CCc1ccccc1OCC(O)CN1CCN(CCN2C(=O)c3cccc4cccc(c34)C2=O)CC1` (configuration not stated), the Ki in [1] amounted to 150 nM; in data set [2] it was 3100 nM; in [3] (read-out: Ki), 293 nM.

On to `COc1cc2c3c(cccc3c1)C(=O)N(CC1CCN(CC(O)COc3ccccc3C(C)C)CC1)C2=O` (configuration not stated), for which the Ki in [1] stood at 38 nM; in data set [2], 698 nM; in data set [3] (read-out: Ki), 209 nM.

Take `CC(C)c1ccccc1OCC(O)CN1CCN(CCN2C(=O)c3cccc4cccc(c34)C2=O)CC1` (configuration not stated): the Ki in data set [1] was determined as 70 nM; in data set [2] it was 1480 nM; in [3] (read-out: Ki), 740 nM.

Turning to `CC(C)c1ccccc1OCC(O)CN1CCC(CN2C(=O)CCCC2=O)CC1` (configuration not stated), the inhibition constant Ki was determined as 9 nM in data set [1], 2900 nM in [2] and 245 nM in data set [3] (read-out: Ki).

As to `C=CCc1ccccc1OCC(O)CN1CCC(CN2C(=O)CCCC2=O)CC1` (configuration not stated), the Ki in [1] stood at 80 nM; in [2], 11000 nM; in [3] (read-out: Ki), 440 nM.

Take `O=C1c2cccc3cc(O)cc(c23)C(=O)N1CC1CCN(CC(O)COc2cccc3[nH]c4ccccc4c23)CC1` (configuration not stated): the IC50 in [7] came to 120 nM. The EC50 was 234 nM in data set [4] and 80 nM in data set [9]. For the same compound, the Intrinsic activity in data set [8] was determined as 40%. For the same compound, the Ki in data set [1] came to 37 nM; in data set [2], 590 nM; in data set [3] (read-out: Ki) it was 250 nM.

For `O=C(c1ccc(F)cc1)C1CCN(CC(O)COc2cccc3[nH]c4ccccc4c23)CC1` (configuration not stated), the CC50 in data set [10] was 19000 nM; in data set [15], 9000 nM. Also, the IC50 in data set [7] was determined as 32 nM. Besides, the solubility (in general, the concentration that dissolves in the medium under given conditions) worked out at 180 µM (≈ 80.4 µg/mL) in data set [11] and 10 µM (≈ 4.47 µg/mL) in data set [13]. Besides, the EC50 in [4] was 385 nM; in [9], 310 nM. In addition, the outcome in [12] was Active. Moreover, in data set [14], the highest level (Cmax) was 290 nM. Further, the Intrinsic activity in data set [8] turned out to be 20%. Moreover, the Ki in data set [1] amounted to 0.3 nM; in [2], 250 nM; in data set [3] (read-out: Ki), 32 nM. Besides, the half-life (in general, the time in which the quantity being followed falls by half) in [16] was 7.5 h.

`OC(COc1cccc2[nH]c3ccccc3c12)CN1CCC(Cc2cccnc2)CC1` (configuration not stated): the Ki in [1] came to 0.1 nM; in data set [2], 72 nM; in data set [3] (read-out: Ki) it was 1 nM.

For the compound `O=C(c1ccccc1)C1CCN(CC(O)COc2cccc3[nH]c4ccccc4c23)CC1` (configuration not stated), the Ki in data set [1] is 0.2 nM; in data set [2], 230 nM; in [3] (read-out: Ki), 16 nM.

As to `CC(C)c1ccccc1OCC(O)CNC1CCN(C)CC1` (configuration not stated), the values for the Ki in data set [1], in [2] and in data set [3] (read-out: Ki) were 17 nM, 1060 nM and 89 nM, respectively.

On to `CC(C)c1ccccc1OCC(O)CN1CCOCC1` (configuration not stated), for which the figures for the inhibition constant Ki in data set [1], in data set [2] and in data set [3] (read-out: Ki) were 1.2 nM, 1770 nM and 12 nM, respectively.

Regarding `OC(COc1cccc2[nH]c3ccccc3c12)CN1CCC(Cc2ccccc2)CC1` (configuration not stated), the Ki in data set [1] came out at 0.5 nM; in data set [2], 230 nM; in [3] (read-out: Ki), 14 nM.

As to `CC(C)c1ccccc1OCC(O)CN1CCC(CN2C(=O)c3cccc4cccc(c34)C2=O)CC1` (configuration not stated), the values for the Ki in [1], in data set [2] and in [3] (read-out: Ki) were 230 nM, 1030 nM and 250 nM, respectively.

As for `COc1ccc(CC2CCN(CC(O)COc3cccc4[nH]c5ccccc5c34)CC2)cc1` (configuration not stated), the Ki in [1] turned out to be 0.2 nM; in data set [2], 455 nM; in [3] (read-out: Ki), 3.4 nM.

For the compound `C=CCc1ccccc1OCC(O)CN1CCC(N2C(=O)c3cccc4cccc(c34)C2=O)CC1` (configuration not stated), the Ki in [1] amounted to 40 nM; in data set [2], 2340 nM; in data set [3] (read-out: Ki), 1050 nM.

Regarding `O=C1c2cccc3cccc(c23)C(=O)N1CC1CCN(CC(O)COc2ccc3[nH]ccc3c2)CC1` (configuration not stated), the inhibition constant (Ki) in data set [1] was found to be 1260 nM; in data set [2] it was 8500 nM; in [3] (read-out: Ki), 4530 nM.

Regarding `O=C1c2cccc3cccc(c23)C(=O)N1CC1CCN(CC(O)COc2cccc3[nH]ccc23)CC1` (configuration not stated), the Ki in data set [1] is 120 nM; in data set [2], 1000 nM; in data set [3] (read-out: Ki), 27 nM.
